Assay results as given in US5366958A, “Localized delivery using fibronectin conjugates” (The Liposome Company, Inc., priority 1993, dated 1994).

Key:
[1] = assay type: in vivo, mouse (female Swiss Webster); settings: intra-articular, 2 ul, normalized to maximum possible value of 100%
Experimental: For this example control SPLVs were prepared as described in Section 4.3. using the following formulation: 100 mg EPC, 3.7 mg PE, and 10 mg indomethacin were dissolved in chloroform and then dried down to a film. The indomethacin was entrapped in the SPLVs by resuspending the film in ether, adding the aqueous phase and sonicating while evaporating. Trace amounts of radiolabeled ^14 C-indomethacin were incorporated to quantify retention of drug in joints of injected test animals.
Twenty-five female Swiss Webster mice were anesthetized with 50 mg/kg pentobarbitol and divided into 5 treatment groups. Group 1 was treated with unentrapped ^14 C-indomethacin (trace amount) in PBS buffer solution. Group 2 was treated with ^14 C-indomethacin entrapped in SPLVs (control SPLVs). Group 3 was treated with fibronectin-modified control SPLVs (non-covalent association) prepared by incubation of the SPLV-entrapped ^14 C-indomethacin with 0.3 mg fibronectin (FN, Seragen, Inc., Boston, Mass.; or Collaborative Research, Inc., Lexington, Mass.) for 2 hours before the SPLVs were repeatedly washed to remove unincorporated materials. Groups 4 and 5 were treated with SPLVs in which fibronectin was covalently attached to the liposomes. […] Two drops of glacial acetic acid were then added and samples were dark adapted over night before radioactivity was determined.

[2] = ocular application; cited from earlier work

% Total 14C-Indomethacin Remaining in Joint, 5 Hours ([1]; 5 hours post-injection) [%] | % Total 14C-Indomethacin Remaining in Joint, 24 Hours ([1]; 24 hours post-injection) [%] | Compound | effectiveness in treating recurrent corneal erosion [2]
4.7 | 1.0 | COc1ccc2c(c1)c(CC(=O)O)c(C)n2C(=O)c1ccc(Cl)cc1 [Unentrapped 14C-Indomethacin, indomethacin] | –
– | – | fibronectin | effective
